Results on 11 compounds are retold here after US6599938B1, “Compounds having MIF antagonist activity” (The Picower Institute of Medical Research, priority 1999, dated 2003).

A word on the IC50: it is the concentration needed to halve the response being measured.

Test [1] has as its target T1, MIF (Homo sapiens, UniProt P14174).
T1 sequence (P14174 2-115 limits assumed): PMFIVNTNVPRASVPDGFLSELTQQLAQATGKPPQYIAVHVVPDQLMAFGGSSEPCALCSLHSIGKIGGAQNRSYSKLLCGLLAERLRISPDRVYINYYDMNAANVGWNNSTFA
The test can be described thus: MIF dopachrome tautomerase assay. The format is biochemical. The conditions noted are these: for IC50: MIF tautomerase activity, L-dopachrome methyl ester substrate; for MIF antagonist activity: D amino acid compounds compared with compounds 8-10.

Test [2] deals with quiescent NIH/3T3 fibroblasts. The test can be described thus: Inhibition of MIF-dependent serum-induced proliferation of quiescent NIH/3T3 fibroblasts. The test is classed as cell-based. The conditions noted are these: for MIF inhibitory activity (inhibition of MIF induced proliferation in quiescent NIH/3T3 cell cultures): NIH/3T3 cell proliferation assay.
The subject of test [3] is primary murine embryonic fibroblasts. The test can be described thus: Neutralization of rMIF rescue from serum-withdrawal apoptosis. The test is classed as cell-based. The note with it: serum-free + rMIF 50 ng/ml; for neutralizing MIF-mediated protection from apoptosis (persistence of apoptosis despite rMIF): FIG. 2, test compound 1 or 10 μM, compared with anti-MIF mAb. From the text: FIG. 2 compares the activity of MIF antagonist agents of the present invention (and more particularly compounds according to Formula I) to neutralize the MIF-mediated protection from apoptosis induced in cultured murine embryonic fibroblasts, which apoptotic response (cell death) is initiated by withdrawal of serum. In this assay, withdrawal of serum initiates an apoptotic response, but the cells can be rescued by addition of recombinant MIF (rMIF) to the culture medium. […] This antagonistic effect on MIF bioactivity in vitro is predictive of clinical utility of the active MIF antagonist agent.
In the illustrative experiments, cultured embryonic fibroblasts are induced to enter apoptosis (cell death) as a result of serum withdrawal. These cultures can be “rescued” by treatment with MIF. Thus, test compounds are conveniently assayed for MIF antagonist activity by reference to the activity of the compounds to neutralize the effect of added MIF in the apoptosis assay; that is, by the persistence of apoptosis (cell death) in serum-free culture conditions despite the addition of MIF. In this regard, anti-MIF antibodies are known to antagonize MIF and serve as a convenient positive control.
Briefly, primary murine embryonic fibroblasts are distributed into 6-well cell culture plates at 2×10^5 cells/well. Cells are subsequently cultured overnight under standard conditions in 10% serum-containing medium (+serum) or in serum-free medium (+serum-free) in the absence or presence of recombinant human MIF (rMIF) at 50 ng/ml. […] Cell lysates are analyzed for apoptosis by any of a variety of convenient methods, such as ELISA for fragmented DNA. Results shown are the mean+/−SD of duplicate samples and are representative of replicated experiments.

Values joined by “and” are separate entries in the source; they are usually repeats but may differ in a detail not shown here. Identical values can stand only once. “Also recorded” adds a separate entry of the source. Like-named read-outs stand apart in the source and are kept apart here.

Regarding `COC(=O)CN=Cc1ccc(O)cc1` [compound 1], the IC50 in test [1] (read-out: Inhibition (IC50)) is more than 100 µM.

Regarding `COC(=O)[C@H](Cc1ccccc1)N=Cc1ccc(O)cc1` [compound 8, L-PheME/parahydroxybenzaldehyde Schiff base], in test [1] (read-out: Inhibition (IC50)), the IC50 is ~50 µM and 50 µM. Further, the “MIF inhibitory activity (inhibition of MIF induced proliferation in quiescent NIH/3T3 cell cultures)” value (from here on “MIF inhibitory activity”) in test [2] is recorded as “Neither compound 8 (corresponding to L-PheME/parahydroxybenzaldehyde Schiff base) nor compound 10b (corresponding to D-TrpME/parahydroxybenzaldehyde Schiff base) exhibited anti-MIF biological activity”. Regarding `COC(=O)[C@@H](Cc1ccccc1)N=Cc1ccc(O)cc1` [compound 8b], the MIF antagonist activity result in test [1] is given as “significantly less MIF antagonist activity”.

For the compound `COC(=O)[C@H](Cc1ccc(O)cc1)N=Cc1ccc(O)cc1` [compound 9, L-TyrME/parahydroxybenzaldehyde Schiff base], the IC50 in test [1] (read-out: Inhibition (IC50)) was ~10 µM and 10 µM. Besides, the “MIF inhibitory activity” value in test [2] is recorded as “exhibited MIF inhibitory activity”. Regarding `COC(=O)[C@H](Cc1c[nH]c2ccccc12)N=Cc1ccc(O)cc1` [compound 10], the “antagonism of the bioactivity of MIF in apoptosis assay” value in test [3] (10 μM) was “significantly antagonizes the bioactivity of MIF”. In test [3], the “neutralizing MIF-mediated protection from apoptosis (persistence of apoptosis despite rMIF)” value is “as effective an MIF antagonist agent as is a neutralizing anti-MIF monoclonal antibody; also recorded: as effective as a monoclonal anit-MIF antibody treatment at neutralizing rMIF; also recorded: dose-related effect”. Also, in test [2] (FIG. 1, 10 μM, 10% serum, [3H]-thymidine incorporation, compared with anti-MIF mAb 100 μg/ml), the “suppression of serum-induced cell proliferation” value was “as effective an MIF antagonist as a neutralizing anti-MIF monoclonal antibody”. The “MIF inhibitory activity” value in test [2] was “exhibited MIF inhibitory activity”. Take `COC(=O)[C@@H](Cc1c[nH]c2ccccc12)N=Cc1ccc(O)cc1` [compound 10b, D-tryptophan/para-hydroxybenzaldehyde Schiff base]: the MIF antagonist activity result in test [1] was “significantly less MIF antagonist activity”. The “neutralizing MIF-mediated protection from apoptosis (persistence of apoptosis despite rMIF)” value in test [3] was “but not compound 10b (D-tryptophan/para-hydroxybenzaldehyde Schiff base), was as effective as a monoclonal anit-MIF antibody treatment at neutralizing rMIF”. Regarding `COC(=O)C(Cc1ccc(O)cc1)N=Cc1ccccc1O` (centres unmarked) [compound 18], the 50% inhibitory concentration (IC50) in test [1] (read-out: Inhibition IC50) is more than 100 µM. Turning to `COC(=O)C(Cc1ccc(O)cc1)N=Cc1cccc(O)c1O` (centres unmarked) [compound 20], the IC50 in test [1] (read-out: Inhibition IC50) is more than 100 µM. On the same count and under the same terms, for `COC(=O)C(Cc1ccc(O)cc1)N=Cc1ccc(O)c(O)c1` (centres unmarked) [compound 21] the value was more than 100 µM; for `COC(=O)[C@H](Cc1ccc(O)cc1)N=Cc1ccc(F)cc1` [compound 24], more than 100 µM; for `COC(=O)[C@H](Cc1c[nH]c2ccccc12)N=Cc1ccc(F)cc1` [compound 29], more than 100 µM.
